Experimental data reported in paper PMC12566046, “Arylpiperazinyl-Benzocycloheptapyrrole-Carboxamides Endowed with Dual Anticancer and Antiviral Activities” (Molecules, 2025).
Where two headings read alike, the source gives them in different places.

How the values were obtained:
[1] = system: IAV strain A/PR/8/34 (H1N1); test: microbe, parasite or virus in culture; settings: Influenza A virus, MDCK
[2] = Cytotoxicity on uninfected Huh-7 cells (WST-8, crystal violet); settings: human, uninfected Huh-7 cells
[3] = system: ZIKV, strain Brazil/2016/INMI1; test: ZIKV viral yield reduction assay on Huh-7 cells; type: cell-based, Zika virus; settings: Zika virus, Huh-7, read-out: ZIKV/Huh‐7 EC50
Protocol: We developed a protocol to screen the potential antiviral activity of compounds 1–20 against ZIKV (strain Brazil) on Huh-7 cells, against an H1N1 IAV strain (PR/8/1934) on MDCK cells, and against SARS-CoV-2 (strain Milano) on Vero-TMPRSS. Each compound was tested in duplicate at concentrations of 50 μM, 5 μM, and 0.5 μM. Treatment was applied immediately after infection, and at 24–48 h post-infection, supernatants were collected to assess viral yield, determined as PFU/mL for ZIKV and SARS-CoV-2 or as TCID50/mL for IAV. The test allowed us to evaluate both the antiviral action and the cytotoxicity of each compound, comparing them with reference compounds, such as sofosbuvir for ZIKV and EIDD-1931 for IAV and SARS-CoV-2 (Supplementary Materials, Figures S87–S89).
Viral yield reduction assays for ZIKV and SARS-CoV-2 were performed as previously described by Plicanti. Briefly, 1 × 10^4 Huh-7 cells/well and 1.2 × 10^4 VERO TMPRSS cells/well were infected with ZIKV (MOI 1) or SARS-CoV-2 (MOI 0.05) in a primary 96-well plate for 2 h at 37 °C, 5% CO2. […] Supernatants were collected after 48 h (Huh-7) or 24 h (VERO TMPRSS), diluted 3-fold, and added onto VERO E6 or VERO TMPRSS monolayers, respectively. After 2 h at 37 °C, the inoculum was replaced with 0.75% carboxymethyl cellulose (Merck®, Darmstadt, Germany) in DMEM 2% FBS. After 48–72 h, cells were then fixed with 4% buffered formalin solution (Merck®, Darmstadt, Germany) and stained with 1% crystal violet (Merck®, Darmstadt, Germany). Titres and percentage of inhibition were calculated as follows:
PFU/mL = number of plaques*3^n/vol infection, where n is the dilution where plaques were counted:% inhibition = 100 × (1 − Titre-compound/Titre-untreated control) where Titre-compound and Titre-untreated control are the titres (PFU/mL) obtained on cells treated with compound or DMSO, respectively.
SI was obtained by dividing CC50 by EC50 for each drug/virus/cell line. Compounds with SI values ≥ 10 were active in vitro.

in vitro [4] = settings: dog
NCI-60 cell line panel = test: NCI-60 single-dose assay, whole panel; type: cell-based, human; settings: summary over the panel
Excerpt: (§1) We first evaluated the cytotoxic activity of tricyclic-pyrrole carboxamides 1–20 using the NCI-60 cell line panel, representing nine different human cancers: leukemia, melanoma, and cancers of the lung, colon, central nervous system (CNS), ovary, kidney, prostate, and breast (the one-dose graph for compounds 1–20 is reported in Supplementary Materials, Figures S43–S62). Compounds 1, 5, 10, 11, 17, and 20 satisfied pre-determined threshold inhibition criteria in a minimum number of cell lines; therefore, they were also tested in the full five-dose assay (Figures S63–S68 in the Supplementary Materials).

[5] = Cytotoxicity on uninfected MDCK cells (WST-8, crystal violet); settings: dog
[6] = system: IAV strain A/PR/8/34 (H1N1)
[7] = system: MDA-MB-231/ATCC (breast cancer cell line); test: NCI-60 single-dose assay; type: cell-based, human; settings: Homo sapiens, MDA-MB-231, read-out: growth inhibition (GI%) and cytotoxicity (negative values)
Excerpt: as §1

M14 (melanoma cell line) = test: NCI-60 single-dose assay; type: cell-based, human; settings: Homo sapiens, M14, read-out: growth inhibition (GI%) and cytotoxicity (negative values)
Excerpt: as §1

[8] = system: MALME-3M (melanoma cell line); test: NCI-60 single-dose assay; type: cell-based, human; settings: Homo sapiens, Malme-3M, read-out: growth inhibition (GI%) and cytotoxicity (negative values)
Excerpt: as §1

[9] = system: BT-549 (breast cancer cell line); test: NCI-60 single-dose assay; type: cell-based, human; settings: Homo sapiens, BT-549, read-out: growth inhibition (GI%) and cytotoxicity (negative values)
Excerpt: as §1

[10] = system: MDA-MB-468 (breast cancer cell line); test: NCI-60 single-dose assay; type: cell-based, human; settings: Homo sapiens, MDA-MB-468, read-out: growth inhibition (GI%) and cytotoxicity (negative values)
Excerpt: as §1

[11] = system: SK-MEL-28 (melanoma cell line); test: NCI-60 single-dose assay; type: cell-based, human; settings: Homo sapiens, SK-MEL-28, read-out: growth inhibition (GI%) and cytotoxicity (negative values)
Excerpt: as §1

[12] = system: T-47D (breast cancer cell line); test: NCI-60 single-dose assay; type: cell-based, human; settings: Homo sapiens, T47D, read-out: growth inhibition (GI%) and cytotoxicity (negative values)
Excerpt: as §1

[13] = system: SK-MEL-2 (melanoma cell line); test: NCI-60 single-dose assay; type: cell-based, human; settings: Homo sapiens, SK-MEL-2, read-out: growth inhibition (GI%) and cytotoxicity (negative values)
Excerpt: as §1

[14] = system: MCF-7 (breast cancer cell line); test: NCI-60 single-dose assay; type: cell-based, human; settings: Homo sapiens, MCF7, read-out: growth inhibition (GI%) and cytotoxicity (negative values), MCF-7, 10^−5 M
Excerpt: as §1

[15] = system: SK-MEL-5 (melanoma cell line); test: NCI-60 single-dose assay; type: cell-based, human; settings: human
Excerpt: as §1

[16] = system: EKVX (non-small cell lung cancer cell line); test: NCI-60 single-dose assay; type: cell-based, human; settings: Homo sapiens, read-out: growth inhibition (GI%) and cytotoxicity (negative values)
Excerpt: as §1

[17] = system: LOX IMVI (melanoma cell line); test: NCI-60 single-dose assay; type: cell-based, human; settings: Homo sapiens, LOX IMVI, read-out: growth inhibition (GI%) and cytotoxicity (negative values)
Excerpt: as §1

[18] = system: MDA-MB-435 (melanoma cell line); test: NCI-60 single-dose assay; type: cell-based, human; settings: Homo sapiens, MDA-MB-435, read-out: growth inhibition (GI%) and cytotoxicity (negative values)
Excerpt: as §1

[19] = system: UACC-62 (melanoma cell line); test: NCI-60 single-dose assay; type: cell-based, human; settings: Homo sapiens, UACC-62, read-out: growth inhibition (GI%) and cytotoxicity (negative values)
Excerpt: as §1

[20] = system: UACC-257 (melanoma cell line); test: NCI-60 single-dose assay; type: cell-based, human; settings: Homo sapiens, UACC-257, read-out: growth inhibition (GI%) and cytotoxicity (negative values)
Excerpt: as §1

in vitro [21] = settings: African green monkey

Question: With O=C(NCCN1CCN(c2ccc(Cl)c(Cl)c2)CC1)c1c(Cl)[nH]c2c1CCCc1ccccc1-2 [Compound 19] as the compound, how does the EC50 ([1]; 48 h) read?
Answer: Its EC50 is 4.31 µM.

Question: What about the EC50 ([1]; read-out: IAV/MDCK EC50) of the same compound?
Answer: The EC50 was 4.11 µM.

Question: What about the CC50 at 48 h [2] of the same compound?
Answer: Its CC50 at 48 h is 12 µM.

Question: What about the EC50 [3] of the same compound?
Answer: The EC50 was 4.08 µM.

Question: And the CC50 (in vitro [4])?
Answer: The CC50 was under 50 µM.

Question: And the “growth inhibition (GI%) reached against cancer cell lines of the NCI-60 panel” value (NCI-60 cell line panel)?
Answer: Its value is over 90%.

Question: And the CC50 at 48 h [5]?
Answer: The CC50 at 48 h was 92.1 µM.

Question: What about the “selectivity index (SI)” value ([6]; IAV, MDCK cells, CC50/EC50) of the same compound?
Answer: The value was 21.36.

Question: And the “IAV/MDCK SI” value ([6]; preliminary screening)?
Answer: Its value is under 12.17.

Question: And the inhibition at 10 µM [7]?
Answer: Its inhibition at 10 µM is under 60%.

Question: And the inhibition at 10 µM (M14 (melanoma cell line))?
Answer: The inhibition at 10 µM was under 60%.

Question: What about the inhibition at 10 µM [8] of the same compound?
Answer: The inhibition at 10 µM was under 60%.

Question: And the inhibition at 10 µM [9]?
Answer: The inhibition at 10 µM was under 60%.

Question: What about the inhibition at 10 µM [10] of the same compound?
Answer: The inhibition at 10 µM was 94.2%.

Question: What about the inhibition at 10 µM [11] of the same compound?
Answer: The inhibition at 10 µM was under 60%.

Question: What about the inhibition at 10 µM [12] of the same compound?
Answer: The inhibition at 10 µM was under 60%.

Question: And the inhibition at 10 µM [13]?
Answer: Its inhibition at 10 µM is under 60%.

Question: And the inhibition at 10 µM [14]?
Answer: Its inhibition at 10 µM is under 60%.

Question: What about the “growth inhibition (GI%) and cytotoxicity (negative values)” value [15] of the same compound?
Answer: Its value is −24.28%.

Question: And the inhibition at 10 µM [16]?
Answer: The inhibition at 10 µM was 61.7%.

Question: What about the inhibition at 10 µM [17] of the same compound?
Answer: The inhibition at 10 µM was under 60%.

Question: What about the inhibition at 10 µM [18] of the same compound?
Answer: Its inhibition at 10 µM is under 60%.

Question: What about the inhibition at 10 µM [19] of the same compound?
Answer: The inhibition at 10 µM was under 60%.

Question: And the inhibition at 10 µM [20]?
Answer: The inhibition at 10 µM was under 60%.

Question: And the CC50 at 24 h (in vitro [21])?
Answer: The CC50 at 24 h was 40.8 µM.
